What all share (assay): inhibition of tumour cell growth, NCI panel, 48 h
In assay [1] the test system is Hs-578T.
Assay [2] has as its system COLO 205.
Assay [3] has as its system Malme-3M.
Assay [4] has as its system SK-MEL-28.
In assay [5] the test system is NCI-H522.
Assay [6] has as its system OVCAR-8.
The test system of assay [7] is SN12C.
For assay [8], the system named is LOX IMVI.
The subject of assay [9] is NCI/ADR-RES.
Assay [10] has as its system BT-549.
Assay [11] has as its system SK-OV-3.
The test system of assay [12] is RXF 393.
Assay [13] relates to OVCAR-4.
The subject of assay [14] is U-251.
Assay [15] deals with SNB-75.
For assay [16], the system named is PC-3.
For assay [17], the system named is HT-29.
In assay [18] the test system is HCT-15.
The subject of assay [19] is EKVX.
For assay [20], the system named is A498.

Structures are written as SMILES.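 Interpolation was linear, between the two tested concentrations surrounding the appropriate level; five concentrations were tested over 48 hours in 96-well plates. At the GI50, growth is halved.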 Calls of active or inactive are those of the source. No stated cut-off is given here; in the data, active = GI50 up to about 1.1 µM and inactive = higher.

In the case of `CN(c1ccccc1)S(=O)(=O)c1ccccc1[N+](=O)[O-]`, the GI50 in [1] was > 100 µM (inactive); in assay [2] it was > 100 µM (inactive); in assay [3], > 100 µM (inactive); in assay [4], > 100 µM (inactive); in assay [5], 64.3 µM (inactive); in [6], > 100 µM (inactive). For the same compound, the GI50 in assay [7] is > 100 µM (inactive); in assay [8] it was > 100 µM (inactive); in [9], > 100 µM (inactive); in [10] it was 75.2 µM (inactive); in [11] it was > 100 µM (inactive); in [12], > 100 µM (inactive). The GI50 in assay [13] is 98.4 µM (inactive); in assay [14], > 100 µM (inactive); in assay [15], 96.6 µM (inactive); in [16], 57.9 µM (inactive); in assay [17] it was 39.8 µM (inactive); in [18] it was greater than 100 µM. The GI50 in assay [19] is > 100 µM (inactive).
With `O=C1C(Cl)=C(NCCN2CCOCC2)C(=O)c2c(O)ccc(O)c21`, the GI50 is 3.13 µM (inactive) in [1]; 1.5 µM (inactive) in [2]; 1.84 µM (inactive) in assay [3]; 1.48 µM (inactive) in assay [4]; 3.25 µM (inactive) in assay [6]; 1.79 µM (inactive) in [7]. Also, the GI50 in assay [8] was 1.33 µM (inactive); in assay [9], 2.09 µM (inactive); in assay [10], 2.24 µM (inactive); in [11], 10 µM (inactive); in assay [13], 1.72 µM (inactive); in assay [14], 2.21 µM (inactive). The GI50 in assay [15] was 1.71 µM (inactive); in [16] it was 2.2 µM (inactive); in assay [17], 2.03 µM (inactive); in assay [18] it was 1.72 µM; in assay [19] it was 4.9 µM (inactive); in assay [20], 6.62 µM (inactive).
For the compound `CC(C)CN1CN(c2ccccc2)C2(CCN(CC(C)(c3ccc(F)cc3)C3OCCO3)CC2)C1=O` (stereo not given), the GI50 is 3.66 µM (inactive) in assay [1]; 1.65 µM (inactive) in assay [2]; 4.89 µM (inactive) in [3]; 3.18 µM (inactive) in [4]; 3.96 µM (inactive) in assay [5]; 10.1 µM (inactive) in assay [6]. The GI50 in assay [7] was 5.75 µM (inactive); in assay [8] it was 2.08 µM (inactive); in assay [9], 7.41 µM (inactive); in assay [10], 6.56 µM (inactive); in assay [11], 3.89 µM (inactive); in assay [12], 6.25 µM (inactive). In addition, the GI50 is 5.6 µM (inactive) in assay [13]; 4.75 µM (inactive) in assay [14]; 7.33 µM (inactive) in [15]; 3.55 µM (inactive) in assay [16]; 1.73 µM (inactive) in assay [17]; 3.27 µM in assay [18]. Further, the GI50 in assay [19] is 6.01 µM (inactive).
Consider `CCOC(=O)CCc1cn2cc(Br)nc(OC)c2n1`, for which the GI50 is > 100 µM (inactive) in [1]; 9.12 µM (inactive) in assay [2]; > 100 µM (inactive) in assay [3]; > 100 µM (inactive) in assay [4]; 81.8 µM (inactive) in [5]; 59.2 µM (inactive) in assay [6]. For the same compound, the GI50 is 75.9 µM (inactive) in assay [7]; 90.2 µM (inactive) in [8]; 24.9 µM (inactive) in assay [9]; > 100 µM (inactive) in assay [10]; 48.1 µM (inactive) in assay [11]; 40.2 µM (inactive) in assay [12]. Also, the GI50 in [13] was > 100 µM (inactive); in assay [14] it was 65.6 µM (inactive); in [15] it was 26.1 µM (inactive); in assay [16], 50.9 µM (inactive); in assay [17], 17.9 µM (inactive); in assay [18] it was 6.5 µM. Further, the GI50 in [19] is > 100 µM (inactive).
